Measured values as given in ChEMBL document CHEMBL4190322, “Structure-based development of novel triazoles and related thiazolotriazoles as anticancer agents and Cdc25A/B phosphatase inhibitors. Synthesis, in vitro biological evaluation, molecular docking and in silico ADME-T studies” (Eur J Med Chem, 2017).
The source made the active and inactive calls. No cut-off for these calls is given here.

Legend:
HOP-62 = assay: Growth inhibition of human HOP62 cells at 10 uM after 48 hrs by SRB assay relative to control; format: functional; details: HOP-62, 48 h, read-out: GI
SK-OV-3 = assay: Growth inhibition of human SKOV3 cells at 10 uM after 48 hrs by SRB assay relative to control; format: functional; details: SK-OV-3, 48 h, read-out: GI
786-0 = assay: Growth inhibition of human 786-0 cells at 10 uM after 48 hrs by SRB assay relative to control; format: functional; details: for inhibition of growth at 10 µM: 786-0, 48 h, read-out: GI
Hs-578T = assay: Growth inhibition of human Hs 578T cells at 10 uM after 48 hrs by SRB assay relative to control; format: functional; details: for inhibition of growth at 10 µM: read-out: GI
NCI-H322M = assay: Growth inhibition of human NCI-H322M cells at 10 uM after 48 hrs by SRB assay relative to control; format: functional; details: read-out: GI
NCI-H226 = assay: Growth inhibition of human NCI-H226 cells at 10 uM after 48 hrs by SRB assay relative to control; format: functional; details: for inhibition of growth at 10 µM: NCI-H226, 48 h, read-out: GI
[1] = Cytotoxicity against human MCF10A cells after 24 hrs by MTT assay; format: cell-based, MCF-10A; details: read-out: LC50
NCI/ADR-RES = assay: Growth inhibition of human NCI/ADR-RES cells at 10 uM after 48 hrs by SRB assay relative to control; format: functional; details: read-out: GI
RXF 393 = assay: Growth inhibition of human RXF393 cells at 10 uM after 48 hrs by SRB assay relative to control; format: functional; details: for inhibition of growth at 10 µM: RXF 393, 48 h, read-out: GI
K562 = assay: Growth inhibition of human K562 cells at 10 uM after 48 hrs by SRB assay relative to control; format: functional; details: K562, 48 h, read-out: GI
PC-3 = assay: Growth inhibition of human PC3 cells at 10 uM after 48 hrs by SRB assay relative to control; format: functional; details: PC-3, 48 h, read-out: GI
RPMI-8226 = assay: Growth inhibition of human RPMI8226 cells at 10 uM after 48 hrs by SRB assay relative to control; format: functional; details: RPMI-8226, 48 h, read-out: GI
NCI-H522 = assay: Growth inhibition of human NCI-H522 cells at 10 uM after 48 hrs by SRB assay relative to control; format: functional; details: NCI-H522, 48 h, read-out: GI
CCRF-CEM = assay: Growth inhibition of human CCRF-CEM cells at 10 uM after 48 hrs by SRB assay relative to control; format: functional; details: read-out: GI
MDA-MB-468 = assay: Growth inhibition of human MDA-MB-468 cells at 10 uM after 48 hrs by SRB assay relative to control; format: functional; details: for inhibition of growth at 10 µM: MDA-MB-468, 48 h, read-out: GI
SK-MEL-2 = assay: Growth inhibition of human SK-MEL-2 cells at 10 uM after 48 hrs by SRB assay relative to control; format: functional; details: SK-MEL-2, 48 h, read-out: GI
SNB-75 = assay: Growth inhibition of human SNB75 cells at 10 uM after 48 hrs by SRB assay relative to control; format: functional; details: SNB-75, 48 h, read-out: GI
LOX IMVI = assay: Growth inhibition of human LOXIMVI cells at 10 uM after 48 hrs by SRB assay relative to control; format: functional; details: read-out: GI
[2] = molecular target: T1, M-phase inducer phosphatase 1 (Homo sapiens, UniProt P30304); assay: Inhibition of human CDC25A using OMFP as substrate after 15 mins by fluorescence assay
T1 sequence (P30304 whole entry): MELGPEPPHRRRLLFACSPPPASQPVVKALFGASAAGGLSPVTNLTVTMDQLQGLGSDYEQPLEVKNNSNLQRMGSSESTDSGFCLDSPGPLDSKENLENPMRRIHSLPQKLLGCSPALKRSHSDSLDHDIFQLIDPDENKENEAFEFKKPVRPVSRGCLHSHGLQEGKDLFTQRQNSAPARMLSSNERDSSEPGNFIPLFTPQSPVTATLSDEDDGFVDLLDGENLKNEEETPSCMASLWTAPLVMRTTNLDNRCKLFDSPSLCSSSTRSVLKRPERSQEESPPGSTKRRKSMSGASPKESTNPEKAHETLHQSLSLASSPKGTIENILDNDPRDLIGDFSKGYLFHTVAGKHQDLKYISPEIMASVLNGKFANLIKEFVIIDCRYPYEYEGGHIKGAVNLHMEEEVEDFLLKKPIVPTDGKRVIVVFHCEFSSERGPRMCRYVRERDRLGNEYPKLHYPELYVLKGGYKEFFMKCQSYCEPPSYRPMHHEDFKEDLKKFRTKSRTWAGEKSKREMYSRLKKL

A498 = assay: Growth inhibition of human A498 cells at 10 uM after 48 hrs by SRB assay relative to control; format: functional; details: A498, 48 h, read-out: GI
UO-31 = assay: Growth inhibition of human UO31 cells at 10 uM after 48 hrs by SRB assay relative to control; format: functional; details: UO-31, 48 h, read-out: GI
MOLT-4 = assay: Growth inhibition of human MOLT4 cells at 10 uM after 48 hrs by SRB assay relative to control; format: functional; details: MOLT-4, 48 h, read-out: GI
NCI-H23 = assay: Growth inhibition of human NCI-H23 cells at 10 uM after 48 hrs by SRB assay relative to control; format: functional; details: NCI-H23, 48 h, read-out: GI
HT-29 = assay: Growth inhibition of human HT-29 cells at 10 uM after 48 hrs by SRB assay relative to control; format: functional; details: HT-29, 48 h, read-out: GI
HOP-92 = assay: Growth inhibition of human HOP92 cells at 10 uM after 48 hrs by SRB assay relative to control; format: functional; details: HOP-92, 48 h, read-out: GI
HL-60 = assay: Growth inhibition of human HL60 cells at 10 uM after 48 hrs by SRB assay relative to control; format: functional
A549 = assay: Growth inhibition of human A549 cells at 10 uM after 48 hrs by SRB assay relative to control; format: functional; details: for inhibition of growth at 10 µM: A549, 48 h, read-out: GI
MCF7 = assay: Growth inhibition of human MCF7 cells at 10 uM after 48 hrs by SRB assay relative to control; format: functional; details: MCF7, 48 h, read-out: GI

| SMILES | inhibition of growth at 10 µM (HOP-62) [%] | inhibition of growth at 10 µM (SK-OV-3) [%] | inhibition of growth at 10 µM (NCI-H322M) [%] | CC50 at 24 h [1] [µM] | inhibition of growth at 10 µM (NCI/ADR-RES) [%] | inhibition of growth at 10 µM (K562) [%] | inhibition of growth at 10 µM (PC-3) [%] | inhibition of growth at 10 µM (RPMI-8226) [%] | inhibition of growth at 10 µM (NCI-H522) [%] | inhibition of growth at 10 µM (CCRF-CEM) [%] | inhibition of growth at 10 µM (SK-MEL-2) [%] | inhibition of growth at 10 µM (SNB-75) [%] | inhibition of growth at 10 µM (LOX IMVI) [%] | IC50 [2] [µM] | inhibition of growth at 10 µM (A498) [%] | inhibition of growth at 10 µM (UO-31) [%] | inhibition of growth at 10 µM (MOLT-4) [%] | inhibition of growth at 10 µM (NCI-H23) [%] | inhibition of growth at 10 µM (HT-29) [%] | inhibition of growth at 10 µM (HOP-92) [%] | also measured |
| --- | --- | --- | --- | --- | --- | --- | --- | --- | --- | --- | --- | --- | --- | --- | --- | --- | --- | --- | --- | --- | --- |
| COc1ccc(Cc2nnc(SCC(=O)Nc3ccc(Cl)cc3)n2Cc2ccccc2)cc1 | 12 | 16.2 | 14.5 | > 100 | 14.3 | 34.5 | 47.3 | 22.5 | 29.3 | 22.4 | 17.2 | 4 | 12.2 | 14.1 | 16 | 31.7 | 36 | 9 | 10 | 29.8 | inhibition of growth at 10 µM (786-0): 11.4%; inhibition of growth at 10 µM (Hs-578T): 2.82%; inhibition of growth at 10 µM (NCI-H226): 4.45%; growth inhibition (GI) (RXF 393): inactive; growth inhibition (GI) (MDA-MB-468): inactive; growth inhibition (GI) (HL-60): inactive; inhibition of growth at 10 µM (A549): 1.05%; inhibition of growth at 10 µM (MCF7): 11.1% |
| COc1ccc(Cc2nnc(SCC(=O)c3ccc(Cl)cc3)n2-c2ccc(C)cc2)cc1 | 11.7 | 1.07 | 4 | > 100 | 12 | 53.5 | 26 | 25 | 23 | 23 | 10 | 11.4 | 1.19 | 20.5 | 46 | 14 | 32.7 | 5.6 | 4.07 | 36.9 | growth inhibition (GI) (786-0): inactive; growth inhibition (GI) (Hs-578T): inactive; inhibition of growth at 10 µM (NCI-H226): 3%; growth inhibition (GI) (RXF 393): inactive; inhibition of growth at 10 µM (MDA-MB-468): 11%; inhibition of growth at 10 µM (HL-60; HL-60, 48 h, read-out: GI): 26.4%; inhibition of growth at 10 µM (A549): 4.54%; inhibition of growth at 10 µM (MCF7): 8.76% |
| COc1ccc(Cc2nnc(SCC(=O)Nc3ccc(Cl)cc3)n2-c2ccccc2)cc1 | 8.3 | 14.1 | 8.75 | > 100 | 11.4 | 25 | 45.2 | 20.6 | 22.3 | 21.4 | 3.18 | 8.27 | 11.9 | 32.9 | 15.5 | 27.2 | 42.3 | 8.87 | 2.73 | 30 | growth inhibition (GI) (786-0): inactive; growth inhibition (GI) (Hs-578T): inactive; growth inhibition (GI) (NCI-H226): inactive; inhibition of growth at 10 µM (RXF 393): 3.85%; growth inhibition (GI) (MDA-MB-468): inactive; growth inhibition (GI) (HL-60): inactive; growth inhibition (GI) (A549): inactive; inhibition of growth at 10 µM (MCF7): 4.1% |
| COc1ccc(Cc2nnc(SCC(=O)c3ccc(Cl)cc3)n2Cc2ccccc2)cc1 | 11.2 | 17 | 26 | > 100 | 21.5 | 29.2 | 51.8 | 26.4 | 30 | 20 | 13 | 14.4 | 6.87 | 11.4 | 35.2 | 34.7 | 28.6 | 13.6 | 3 | 39.3 | inhibition of growth at 10 µM (786-0): 3.19%; inhibition of growth at 10 µM (Hs-578T): 20%; inhibition of growth at 10 µM (NCI-H226): 10%; inhibition of growth at 10 µM (RXF 393): 16%; inhibition of growth at 10 µM (MDA-MB-468): 16%; growth inhibition (GI) (HL-60): inactive; inhibition of growth at 10 µM (A549): 16.5%; inhibition of growth at 10 µM (MCF7): 10% |
| COc1ccc(Cc2nnc(SCC(=O)c3ccc(Cl)cc3)n2-c2ccccc2)cc1 | 1.26 | 7.83 | 8.4 | > 100 | 10.3 | 26.7 | 36.2 | 13.7 | 21 | 7.71 | 11.5 | 12.8 | 3.4 | 30.7 | 24.5 | 20.1 | 24 | 8.1 | 2.08 | 24.1 | inhibition of growth at 10 µM (786-0): 7.77%; inhibition of growth at 10 µM (Hs-578T): 3.43%; inhibition of growth at 10 µM (NCI-H226): 4%; inhibition of growth at 10 µM (RXF 393): 2%; inhibition of growth at 10 µM (MDA-MB-468): 8.55%; growth inhibition (GI) (HL-60): inactive; inhibition of growth at 10 µM (A549): 4.57%; inhibition of growth at 10 µM (MCF7): 6.26% |
